The target of test [1] is T1, 5-HT1B (Homo sapiens, UniProt P28222).
T1 construct: expressed in transfected cells
Kind of test: Radioligand binding assay, 5-HT1B. The procedure:
(§1) [^3H] […] The reactions are incubated at room temperature for 3 hr. and then counted in a Trilux Microbeta™ scintillation counter to detect receptor-bound radioligand. Binding data are analyzed by computer-assisted 4 parameter fit analysis (ID Business Solutions Ltd, Guildford, Surrey, UK). […]
(§2) Affinity for other serotonin receptor subtypes as well as for alpha 1 & 2 adrenergic receptors can readily be determined by modification of the above described radioligand receptor binding assay using membranes derived from cells stably expressing the desired receptor subtype including the 5-HT1A, 5-HT1B, and 5-HT1D subtypes, as well as the 5-HT2A, 5-HT2B, 5-HT2C, 5-HT4, 5-HT7, and 5-HT6 receptor subtypes. […]

Test [2] deals with dural plasma protein extravasation. Kind of test: Animal model of dural plasma protein extravasation (PPE). The test is classed as in vivo. The settings on record: rat. The text has this:
The dural plasma protein extravasation model is an established model for migraine. The ability of a test compound to reduce extravasation of plasma proteins into the dura under assay conditions is considered indicative of the compound's ability to reduce or prevent the dural inflammation thought to be symptomatic of migraine. (see Johnson, K. W., et al., Neuroreport, 8 (1997) 2237-2240.)
To assay compounds for their ability to reduce or prevent dural plasma protein extravasation, male Harlan Sprague-Dawley rats (250-350 g) are anesthetized with sodium pentobarbital (65 mg/kg, i.p.) and placed in a stereotaxic frame (David Kopf Instruments) with the incisor bar set at −2.5 mm. Following a midline sagital scalp incision, 2 pairs of bilateral holes are drilled through the skull (3.2 mm posterially, 1.8 and 3.8 mm laterally, all coordinates referenced to bregma). […]
The amount of FITC-BSA for each sample is quantified with a fluorescence microscope (Zeiss) equipped with a grating monochromator, a spectrophotometer, and a computer driven stage. Fluorescence measurements are taken at 25 points in a 5×5 grid in 500 μm steps on each dural sample with an excitation wavelength of approximately 490 nm and emission intensity measured at approximately 535 nm. The mean and standard deviation of the 25 measurements are determined. […]

Test [3] addresses T2, 5-HT1A (Homo sapiens, UniProt P08908).
T2 construct: expressed in transfected cells
T2 sequence (P08908 1-422): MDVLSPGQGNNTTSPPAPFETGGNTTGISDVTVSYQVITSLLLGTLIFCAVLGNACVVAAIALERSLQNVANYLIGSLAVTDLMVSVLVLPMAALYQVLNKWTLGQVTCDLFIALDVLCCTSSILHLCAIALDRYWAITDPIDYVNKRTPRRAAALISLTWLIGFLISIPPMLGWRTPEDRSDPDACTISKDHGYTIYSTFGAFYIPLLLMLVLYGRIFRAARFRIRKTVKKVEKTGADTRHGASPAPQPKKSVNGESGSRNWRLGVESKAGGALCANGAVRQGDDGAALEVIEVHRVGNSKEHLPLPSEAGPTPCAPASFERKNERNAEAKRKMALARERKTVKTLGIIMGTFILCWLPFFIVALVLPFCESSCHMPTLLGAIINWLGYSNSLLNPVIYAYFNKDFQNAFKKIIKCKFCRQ
Kind of test: Radioligand binding assay, 5-HT1A. The procedure: as §1, §2

Some results are limits rather than exact numbers.

Broadly, the Ki is a measure of affinity in units of concentration, obtained from inhibition or displacement. High values mean a looser hold on the target, low ones a stronger hold on the target.

T1 sequence (P28222 whole entry, species assumed): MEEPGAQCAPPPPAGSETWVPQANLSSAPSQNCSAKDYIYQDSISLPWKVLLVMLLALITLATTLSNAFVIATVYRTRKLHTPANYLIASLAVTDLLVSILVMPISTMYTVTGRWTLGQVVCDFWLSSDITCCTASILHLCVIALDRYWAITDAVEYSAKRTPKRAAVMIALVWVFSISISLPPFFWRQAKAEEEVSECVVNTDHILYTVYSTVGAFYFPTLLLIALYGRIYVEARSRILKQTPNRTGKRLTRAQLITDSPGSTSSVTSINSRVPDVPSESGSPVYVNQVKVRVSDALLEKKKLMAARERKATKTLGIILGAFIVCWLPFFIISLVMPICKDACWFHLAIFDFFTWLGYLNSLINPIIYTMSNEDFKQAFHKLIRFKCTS

For the compound `CCn1ncc(CN2CCN(c3cccnc3N3CCC(O)CC3)CC2)c1C.Cl` [Example 1, 3′-[4-(1-Ethyl-5-methyl-1H-pyrazol-4-ylmethyl)-piperazin-1-yl]-3,4,5,6-tetrahydro-2H-[1,2]bipyridinyl-4-ol hydrochloride], the Ki was over 3580 nM in test [1] and 213 nM in test [3]. Moreover, in test [2] (at 0.1 mg/Kg, saline control approximately 2.0, full prevention approximately 1.0), the “ratio of extravasation in the dura, stimulated side over unstimulated side” value is recorded as “about 1.15”. This compound also gave an ID100 in test [2] (electrical stimulation of trigeminal ganglion, route not stated for the result) of 0.1 mg/kg.

These data come from patent publication US7910588B2, “5-HT7 receptor antagonists” (Eli Lilly and Company, priority 2007, dated 2011).
